Assay results reported in PubChem BioAssay (NCI).
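Grown in 96-well plates, cells were treated for 48 hours with each compound at five concentrations. Insufficient inhibition: endpoint recorded as highest concentration tested. GI50: concentration for 50% inhibition of growth. TGI is the concentration that stops growth completely.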

Columns and labels:
Test in all cases: DTP human tumour cell line panel, 48 h
HCT-116 colon = tested on: HCT-116 colon
HL-60(TB) leukemia = tested on: HL-60(TB) leukemia
LOX IMVI melanoma = tested on: LOX IMVI melanoma
M14 melanoma = tested on: M14 melanoma
OVCAR-4 ovarian = tested on: OVCAR-4 ovarian
SF-295 CNS = tested on: SF-295 CNS
SW-620 colon = tested on: SW-620 colon
BT-549 breast = tested on: BT-549 breast
MDA-MB-231 breast = tested on: MDA-MB-231 breast
MCF7 breast = tested on: MCF7 breast

Row | SMILES | TGI (HCT-116 colon) [µM] | TGI (HL-60(TB) leukemia) [µM] | TGI (LOX IMVI melanoma) [µM] | TGI (M14 melanoma) [µM] | TGI (OVCAR-4 ovarian) [µM] | TGI (SF-295 CNS) [µM] | TGI (SW-620 colon) [µM] | GI50 (BT-549 breast) [µM] | TGI (BT-549 breast) [µM] | GI50 (HCT-116 colon) [µM] | GI50 (HL-60(TB) leukemia) [µM] | GI50 (LOX IMVI melanoma) [µM] | GI50 (M14 melanoma) [µM] | GI50 (MDA-MB-231 breast) [µM] | TGI (MDA-MB-231 breast) [µM] | GI50 (OVCAR-4 ovarian) [µM] | GI50 (SF-295 CNS) [µM] | GI50 (SW-620 colon) [µM] | GI50 (MCF7 breast) [µM] | TGI (MCF7 breast) [µM]
1 | N#C/C(=C\c1c(O)cc(O)cc1O)C(N)=O | > 100 | > 100 | > 100 | > 100 | > 100 | > 100 | > 100 | – | – | – | – | – | – | – | – | – | – | – | – | –
2 | COC(=O)c1c(O)ccc(O)c1C(C(C)=O)C(C)=O | > 100 | > 100 | > 100 | > 100 | > 100 | > 100 | > 100 | – | – | – | – | – | – | – | – | – | – | – | – | –
3 | CC1OC(n2cc(C(F)(F)F)c(=O)[nH]c2=O)C=CC1=O (stereo unspecified) | 29.7 | 41.2 | 33 | 59.8 | 26.8 | 81.5 | 35.9 | – | – | – | – | – | – | – | – | – | – | – | – | –
4 | COc1ccc(CN2C(=O)[C@@H]3Cc4c(OC)c(C)c(OC)c(OC)c4[C@H](/C2=C\c2cc(OC)c(OC)c(C)c2OC)N3C(=O)OC(C)C)cc1 | > 100 | > 100 | > 100 | > 100 | > 100 | > 100 | > 100 | – | – | – | – | – | – | – | – | – | – | – | – | –
5 | Cc1ccc2c(c1)-c1c3c(nn1C)-c1ccccc1SC3O2 (stereo unspecified) | > 100 | > 100 | > 100 | – | – | > 100 | > 100 | – | – | – | – | – | – | – | – | – | – | – | – | –
6 | CC(=O)OCC1OC(n2cccnc2=O)C(OC(C)=O)C1OC(C)=O (stereo unspecified) | > 100 | > 100 | > 100 | > 100 | > 100 | – | > 100 | – | – | – | – | – | – | – | – | – | – | – | – | –
7 | O=C1c2ccccc2C(=O)N1CCCOCc1c[nH]c(=O)[nH]c1=O | > 100 | > 100 | > 100 | > 100 | > 100 | > 100 | > 100 | – | – | – | – | – | – | – | – | – | – | – | – | –
8 | C=C1C(=O)O[C@H](c2ccoc2)C[C@@H]1[C@@]1(C)CCCC2(C)C(=O)OCC21 (stereo partly specified) | > 100 | – | > 100 | > 100 | > 100 | > 100 | > 100 | – | – | – | – | – | – | – | – | – | – | – | – | –
9 | Oc1ccc2c(=S)cc(-c3ccc(Br)cc3)oc2c1O | 9.73 | 6.24 | 3.87 | 6.56 | > 100 | 29.8 | 21.6 | 2.19 | 14.6 | 2.22 | 1.66 | 1.18 | 2.01 | 1.81 | 8.4 | 2.03 | 4.01 | 2.6 | – | –
10 | CCOC(=O)C1=C(OC(OCC)C([Se]c2ccccc2)C(C)C)CCC1 (stereo unspecified) | 26 | 11.2 | 6.93 | 43.6 | 32.9 | 44.5 | – | – | – | – | – | – | – | – | – | – | – | – | – | –
11 | CCOC(=O)C1=C(C)NC(=O)NC1c1ccc(OC)cc1OC (stereo unspecified) | > 100 | > 100 | > 100 | > 100 | – | > 100 | > 100 | – | – | – | – | – | – | – | – | – | – | – | – | –
12 | COc1ccc(Cn2cc(COc3cc(/C=C/C(=O)c4cc(OC)c(OC)c(OC)c4)ccc3OC)nn2)cc1 | > 100 | 35.1 | > 100 | > 100 | > 100 | – | > 100 | 3.33 | > 100 | 3.36 | 4.55 | 3.22 | 5.6 | 4.62 | > 100 | 7.04 | – | 3.63 | 3.15 | > 100
13 | Cc1cccc(C)c1NC(=O)CCC(=O)NC(N)=NC#N | > 100 | > 100 | > 100 | > 100 | > 100 | > 100 | > 100 | – | – | – | – | – | – | – | – | – | – | – | – | –
14 | COC(=O)[C@]12CC[C@@H](C)[C@H](C)[C@@H]1C1=CC[C@@H]3[C@@]4(C)C(C=O)=C[C@@](C)(CO)[C@@H]4[C@H](O)C[C@@]3(C)[C@]1(C)CC2 | 8.97 | – | 11.2 | 17.8 | 16.8 | 16.5 | 15.8 | 3.27 | 14.1 | 2.76 | – | 2.77 | 4.13 | 7.86 | 22.3 | 4.17 | 3.94 | 4.23 | 2.44 | 10.3
15 | CCN(CC)CCNC(=O)c1cccc2c1-c1ccccc1C2=O | > 100 | – | > 100 | > 100 | > 100 | > 100 | > 100 | > 100 | > 100 | 55.9 | – | > 100 | > 100 | > 100 | > 100 | > 100 | > 100 | 90.1 | > 100 | > 100
16 | N#Cc1c2ccccc2c(Cc2ccc3c(c2)OCCOCCOCCOCCOCCO3)c2ccccc12 | 21.3 | – | 22.6 | 18 | 17.4 | 21.3 | 32.1 | – | – | – | – | – | – | – | – | – | – | – | – | –
17 | CC(C)(C)[Si](C)(C)OCC1OC(n2cnc3c(=O)[nH]cnc32)CC1O (stereo unspecified) | > 100 | > 100 | > 100 | > 100 | > 100 | > 100 | > 100 | – | – | – | – | – | – | – | > 100 | – | – | – | – | > 100
18 | COC(=O)C1C(C(=O)O)C2(c3ccccc3)C(=O)C1(c1ccccc1)C(c1ccccc1)=C2c1ccccc1 (stereo unspecified) | 35.2 | – | 89.7 | 35.7 | 48.3 | 71.2 | 40.2 | 18 | 37.6 | 19.6 | – | 27.8 | 19.6 | 19.4 | 38.5 | 15.3 | 22.9 | 19.8 | 19.6 | 37.6
19 | O=C(/C=C/c1ccccc1)c1cccc2ccccc12 | 4.1 | 5.21 | 4.69 | 5.19 | – | – | 6 | 2.31 | 5.86 | 1.96 | 1.49 | 1.6 | 2.39 | 4.16 | 18.3 | – | – | 2.42 | 3.07 | 11.1
20 | CC1(C)c2ccccc2N2C(c3ccccc3)=NOC21C (stereo unspecified) | > 100 | > 100 | > 100 | > 100 | > 100 | > 100 | > 100 | – | – | – | – | – | – | – | – | – | – | – | – | –
21 | O=C(NC1CC1)c1c(O)[nH]c(=S)[nH]c1=O | > 100 | > 100 | > 100 | > 100 | > 100 | > 100 | > 100 | – | – | – | – | – | – | – | – | – | – | – | – | –
